Experimental data as given in ChEMBL document CHEMBL3045254, “Molecular modeling of the Toxoplasma gondii adenosine kinase inhibitors” (Med Chem Res, 2012).

Biological target: T1, Adenosine kinase (Toxoplasma gondii, UniProt Q9TVW2)
T1 sequence (Q9TVW2 whole entry): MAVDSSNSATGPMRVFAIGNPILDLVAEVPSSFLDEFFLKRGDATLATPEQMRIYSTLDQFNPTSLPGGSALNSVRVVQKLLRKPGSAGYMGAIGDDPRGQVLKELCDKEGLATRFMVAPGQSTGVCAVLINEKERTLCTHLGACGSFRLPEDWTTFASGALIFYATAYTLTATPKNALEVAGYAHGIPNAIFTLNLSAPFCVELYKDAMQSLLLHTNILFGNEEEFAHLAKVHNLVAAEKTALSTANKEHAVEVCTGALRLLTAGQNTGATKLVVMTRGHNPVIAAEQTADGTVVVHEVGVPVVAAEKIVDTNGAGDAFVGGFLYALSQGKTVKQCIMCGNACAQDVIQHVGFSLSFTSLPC
Assay: Inhibition of Toxoplasma gondii adenosine kinase

Structure (SMILES) | Ki [µM] | IC50 (read-out: IC50) [µM] | IC50 (read-out: pIC50 (converted)) [µM]
OC[C@H]1O[C@@H](n2cnc3c(SCc4ccc(Br)cc4)ncnc32)[C@H](O)[C@@H]1O | 7.5 | 14.3 | 
OC[C@H]1O[C@@H](n2cnc3c(SCc4cccc(C(F)(F)F)c4)ncnc32)[C@H](O)[C@@H]1O | 2.9 | 8.7 | 
CC(C)c1ccc(CNc2ncnc3c2ncn3[C@@H]2O[C@H](CO)[C@@H](O)[C@H]2O)cc1 [P-ISOPROPYL-N6-BENZYLADENOSINE] |  | 22 | 
COc1ccc(CNc2ncnc3c2ncn3[C@@H]2O[C@H](CO)[C@@H](O)[C@H]2O)cc1 |  | 7.5 | 7.19
OC[C@H]1O[C@@H](n2cnc3c(NCc4ccc(Cl)cc4)ncnc32)[C@H](O)[C@@H]1O |  | 25.8 | 
N#Cc1ccc(CSc2ncnc3c2ncn3[C@@H]2O[C@H](CO)[C@@H](O)[C@H]2O)cc1 | 0.9 | 4.3 | 
OC[C@H]1O[C@@H](n2cnc3c(SCc4ccc(Cl)cc4)ncnc32)[C@H](O)[C@@H]1O | 2.1 | 8.11 | 
O=[N+]([O-])c1ccc(CSc2ncnc3c2ncn3[C@@H]2O[C@H](CO)[C@@H](O)[C@H]2O)cc1 [NITROBENZYLMERCAPTOPURINE RIBONUCLEOSIDE] | 1.1 | 12 | 
OC[C@H]1O[C@@H](n2cnc3c(NCc4ccccc4)ncnc32)[C@H](O)[C@@H]1O [N6-BENZYLADENOSINE] |  |  | 794
N#Cc1ccc(CNc2ncnc3c2ncn3[C@@H]2O[C@H](CO)[C@@H](O)[C@H]2O)cc1 [P-CYANO-N6-BENZYLADENOSINE] |  | 8.3 | 
OC[C@H]1O[C@@H](n2cnc3c(SCc4ccc(Cl)c(Cl)c4)ncnc32)[C@H](O)[C@@H]1O | 2.5 | 10.4 | 21.1
OC[C@H]1O[C@@H](n2cnc3c(SCc4ccc(F)cc4)ncnc32)[C@H](O)[C@@H]1O | 1.2 | 10.3 | 
OC[C@H]1O[C@@H](n2cnc3c(SCc4ccccc4F)ncnc32)[C@H](O)[C@@H]1O |  | 8.2 | 
OC[C@H]1O[C@@H](n2cnc3c(SCc4c(F)cccc4Cl)ncnc32)[C@H](O)[C@@H]1O | 37.7 | 8.7 | 
N#Cc1ccc(CNc2ncnc3c2ncn3[C@@H]2O[C@H](CO)[C@@H](O)[C@H]2O)c(Cl)c1 |  | 21.1 | 10.4
OC[C@H]1O[C@@H](n2cnc3c(NCc4ccc(Cl)c(Cl)c4)ncnc32)[C@H](O)[C@@H]1O |  | 14.3 | 
OC[C@H]1O[C@@H](n2cnc3c(NCc4ccccc4F)ncnc32)[C@H](O)[C@@H]1O |  | 37.8 | 
C=Cc1ccc(CNc2ncnc3c2ncn3[C@@H]2O[C@H](CO)[C@@H](O)[C@H]2O)cc1 [P-VINYL-N6-BENZYLADENOSINE] |  | 26.2 | 
Cc1cccc(CSc2ncnc3c2ncn3[C@@H]2O[C@H](CO)[C@@H](O)[C@H]2O)c1 | 1.3 | 8.2 | 
OC[C@H]1O[C@@H](n2cnc3c(NCc4ccc(C(F)(F)F)cc4)ncnc32)[C@H](O)[C@@H]1O |  | 22.9 | 
COc1ccc(CNc2ncnc3c2ncn3[C@@H]2O[C@H](CO)[C@@H](O)[C@H]2O)c(F)c1 |  | 9.5 | 

Structure (SMILES) | Ki [µM] | IC50 (read-out: IC50) [µM] | IC50 (read-out: pIC50 (converted)) [µM]
OC[C@H]1O[C@@H](n2cnc3c(SCc4ccc(Cl)cc4Cl)ncnc32)[C@H](O)[C@@H]1O | 0.7 | 7.3 | 
COc1ccc(CSc2ncnc3c2ncn3[C@@H]2O[C@H](CO)[C@@H](O)[C@H]2O)cc1 | 2.6 | 3.5 | 
OC[C@H]1O[C@@H](n2cnc3c(NCc4cccc(F)c4)ncnc32)[C@H](O)[C@@H]1O |  | 23.2 | 
COc1ccccc1CNc1ncnc2c1ncn2[C@@H]1O[C@H](CO)[C@@H](O)[C@H]1O |  | 8.7 | 
OC[C@H]1O[C@@H](n2cnc3c(NCc4ccc(F)cc4F)ncnc32)[C@H](O)[C@@H]1O |  | 8.2 | 
Cc1cc(C)c(CSc2ncnc3c2ncn3[C@@H]2O[C@H](CO)[C@@H](O)[C@H]2O)c(C)c1 | 150 | 31.1 | 
OC[C@H]1O[C@@H](n2cnc3c(NCc4ccc(Cl)cc4Cl)ncnc32)[C@H](O)[C@@H]1O |  | 9.3 | 
OC[C@H]1O[C@@H](n2cnc3c(SCc4ccccc4)ncnc32)[C@H](O)[C@@H]1O [6-BENZYLTHIOINOSINE] | 2.4 | 9.3 | 
OC[C@H]1O[C@@H](n2cnc3c(SCc4ccccc4Cl)ncnc32)[C@H](O)[C@@H]1O | 1.4 | 6.7 | 
CC(=O)Oc1ccc(CSc2ncnc3c2ncn3[C@@H]2O[C@H](CO)[C@@H](O)[C@H]2O)cc1 [P-ACETOXY-6-BENZYLTHIOINOSINE] | 96.1 | 15 | 
Cc1ccc(CNc2ncnc3c2ncn3[C@@H]2O[C@H](CO)[C@@H](O)[C@H]2O)cc1 |  | 10.5 | 
CC(C)(C)c1ccc(CSc2ncnc3c2ncn3[C@@H]2O[C@H](CO)[C@@H](O)[C@H]2O)cc1 | 113 | 23.3 | 
Cc1cccc(CNc2ncnc3c2ncn3[C@@H]2O[C@H](CO)[C@@H](O)[C@H]2O)c1 |  | 8.5 | 
Cc1ccc(CSc2ncnc3c2ncn3[C@@H]2O[C@H](CO)[C@@H](O)[C@H]2O)cc1 | 3.3 | 7.8 | 
Cc1ccccc1CSc1ncnc2c1ncn2[C@@H]1O[C@H](CO)[C@@H](O)[C@H]1O | 1.5 | 7.7 | 
OC[C@H]1O[C@@H](n2cnc3c(NCc4ccccc4Cl)ncnc32)[C@H](O)[C@@H]1O |  | 10.6 | 
O=[N+]([O-])c1cccc(CSc2ncnc3c2ncn3[C@@H]2O[C@H](CO)[C@@H](O)[C@H]2O)c1 | 3 | 6.2 | 
OC[C@H]1O[C@@H](n2cnc3c(NCc4ccc(F)cc4)ncnc32)[C@H](O)[C@@H]1O |  | 20.6 | 
O=[N+]([O-])c1ccccc1CNc1ncnc2c1ncn2[C@@H]1O[C@H](CO)[C@@H](O)[C@H]1O [O-NITRO-N6-BENZYLADENOSINE] |  | 15 | 
COc1ccc(CNc2ncnc3c2ncn3[C@@H]2O[C@H](CO)[C@@H](O)[C@H]2O)c(OC)c1 |  | 8.7 | 
OC[C@H]1O[C@@H](n2cnc3c(SCc4ccc(OC(F)(F)F)cc4)ncnc32)[C@H](O)[C@@H]1O | 141 | 24.8 | 
